The term IC50 denotes the point on the concentration scale where inhibition reaches its midpoint. Low readings indicate greater potency in that assay, high ones weaker potency in that assay.

Chain of Alpha-glucosidase MAL62 (P07265 whole entry): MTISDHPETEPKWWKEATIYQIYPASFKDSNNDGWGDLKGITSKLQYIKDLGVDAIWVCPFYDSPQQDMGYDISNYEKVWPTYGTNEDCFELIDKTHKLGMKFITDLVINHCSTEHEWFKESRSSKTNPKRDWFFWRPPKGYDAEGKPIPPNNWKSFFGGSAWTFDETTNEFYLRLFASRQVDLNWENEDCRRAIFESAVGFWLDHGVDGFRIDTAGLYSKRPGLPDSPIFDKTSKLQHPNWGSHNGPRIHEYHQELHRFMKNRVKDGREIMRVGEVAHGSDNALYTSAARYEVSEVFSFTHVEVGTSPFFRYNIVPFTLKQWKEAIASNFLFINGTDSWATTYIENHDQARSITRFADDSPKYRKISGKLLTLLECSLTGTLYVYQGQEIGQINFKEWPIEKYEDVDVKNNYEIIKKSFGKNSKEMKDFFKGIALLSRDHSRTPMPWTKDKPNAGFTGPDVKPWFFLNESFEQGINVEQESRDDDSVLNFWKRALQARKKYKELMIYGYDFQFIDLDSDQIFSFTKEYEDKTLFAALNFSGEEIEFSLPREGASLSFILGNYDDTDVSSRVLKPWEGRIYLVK

The assay concerns the target Alpha-glucosidase MAL62 (Saccharomyces cerevisiae, UniProt P07265). The assay is described as follows: Inhibition of yeast alpha-glucosidase using para-nitrophenyl alpha-D-glucopyranoside as substrate by spectrophotometric analysis.
The compound `CC(=O)O[C@]1(C)C[C@H](O)[C@@]23C[C@H]1C(C)(C)[C@@H]2CC[C@]3(C)O` had an IC50 of 690 µM.

Regarding `CC(=O)O[C@]1(C)CC[C@@]23C[C@H]1C(C)(C)[C@@H]2CC[C@H]3C` [CEDRYL ACETATE], the IC50 came to 94 µM.

Regarding `CC(=O)O[C@]1(C)C[C@H](O)[C@@]23C[C@H]1C(C)(C)[C@@H]2C[C@H](O)[C@H]3C`, the IC50 entry is “Not Active”.

The compound `OC[C@H]1NC[C@H](O)[C@@H](O)[C@@H]1O` [DUVOGLUSTAT] displayed an IC50 of 426 µM.

In the case of `C[C@@H]1CC[C@H]2C(C)(C)[C@H]3C[C@@]12CC[C@@]3(C)O` [CEDROL], half-maximal inhibition (IC50) required 130 µM.

The values above are taken from ChEMBL document CHEMBL2331467, “Fungal transformation of cedryl acetate and α-glucosidase inhibition assay, quantum mechanical calculations and molecular docking studies of its metabolites” (Eur J Med Chem, 2013).
